Results reported in patent publication US20240285555A1, “COMPOSITIONS FOR THE TREATMENT OF COPPER DEFICIENCY AND METHODS OF USE” (priority 2018, published 2024).

Assays:
coa6Δ cells = experiment: Oxygen consumption rate measurement; format: cell-based, Saccharomyces cerevisiae; settings: 20 nM ES, YP galactose medium
Method: Oxygen Consumption Measurement. For measurements of respiration rates, cells were grown to late log phase in YPGal medium and then washed, counted, and resuspended in fresh YPGal medium at 10^8 cells/ml. The rate of oxygen consumption was then measured at 30° C. using the Oxytherm (Hansatech, Norfolk, UK). Cyanide-sensitive respiration was calculated after the addition of 1 mM KCN, and the cyanide-insensitive respiration was subtracted from the total respiration.

BY4741 WT cells = experiment: Respiratory growth of wild type yeast with copper chelator BCS; format: cell-based, Saccharomyces cerevisiae; settings: 10 nM ES co-treatment with 20 μM BCS
Method: The cell density was measured spectrophotoretrically at the indicated time points at 600 nm. The data are representative of two independent experiments.

sco1Δ cells = experiment: Respiratory growth rescue of sco1Δ yeast; format: cell-based, Saccharomyces cerevisiae; settings: non-fermentable media, 37° C.
Method: Yeast Strains and Culture Conditions. The authenticity of yeast strains was confirmed by PCR as well as by replica plating on dropout plates. Yeast cells were cultured in standard YP growth media including YPD (1% yeast extract, 2% peptone and 2% glucose), YPGal (2% galactose), YPGE (3% glycerol+1% ethanol), or synthetic media (SC glucose). For qualitative growth measurement, 10-fold serial dilutions of overnight cultures were spotted on YPD or YPGE plates and incubated at 30° C. and 37° C. for the indicated period. Growth in liquid media was measured spectrophotometrically at 600 nm.
ES Rescues Many Different Yeast Mutants with Impaired Copper Metabolism. To test the specificity of ES mediated rescue, a number of yeast mutants of genes required for maintaining cellular and mitochondrial copper homeostasis were shortlisted. Genes were prioritized based on their evolutionary conservation, presence of pathogenic mutations in humans, and/or the existence of a related mouse phenotype (Table 3, shown below). […] Most of the yeast mutants were rescued with ES supplementation, albeit to different degrees, reflecting their distinct roles in cellular and mitochondrial copper homeostasis.

[1] = system: Ctr1^−/− H9c2 cardiomyocytes; experiment: Intracellular copper levels in Ctr1 knockout H9c2 cardiomyocytes (ICP-MS); format: cell-based, rat; settings: 5 nM ES
Method: FIGS. 4A and 4B illustrates the effects of ES supplementation in increasing copper levels (A) and cytochrome c oxidase subunit, COX1, and superoxide dismutase, SOD1 levels (B) in Ctrl1^−/− H9c2 rat cardiomyocytes. ATP5A is a subunit of mitochondrial ATP synthase and was used as a loading control for the Western blotting experiment.
Mammalian Cell Culture. The human control MCH46 and SCO2 patient fibroblasts as well as the rat H9c2 control and Ctr1^−/− cardiomyocytes were cultured in high glucose Dulbecco's modified Eagle's medium (DMEM) supplemented with 10% fetal bovine serum (Sigma) and 1 mM sodium pyruvate (Life Technologies). […] Whole cell protein was extracted in lysis buffer (BP-115, Boston BioProducts) supplemented with protease inhibitor cocktail (Roche Diagnostics) and the protein concentrations were determined by BCA assay (Thermo Scientific). […]
Cellular and Mitochondrial Copper Measurements. Cellular and mitochondrial copper levels were measured using the Perkin Elmer DRC II Inductively Coupled Plasma-Mass Spectrometer (ICP-MS). […] Samples were diluted in ultrapure metal-free water (TraceSELECT, Sigma) and analyzed by ICP-MS. […] Copper concentrations in mammalian cells were also measured by ICP-MS. […]

[2] = system: Ctrl^−/− mouse embryonic fibroblasts (MEFs); experiment: COX1 levels in Ctr1 knockout mouse embryonic fibroblasts; format: cell-based; settings: increasing ES doses
Method: Mammalian Cell Culture. The human control MCH46 and SCO2 patient fibroblasts as well as the rat H9c2 control and Ctr1^−/− cardiomyocytes were cultured in high glucose Dulbecco's modified Eagle's medium (DMEM) supplemented with 10% fetal bovine serum (Sigma) and 1 mM sodium pyruvate (Life Technologies). The mouse embryonic fibroblasts were cultured in DMEM 10% FBS, 1 mM sodium pyruvate, 1× minimum essential medium non-essential amino acids (MEM NEAA; Life Technologies 11140), 50 μg/mL uridine, and 1× Pen Strep Glutamine (Life Technologies 10378). All cell lines were cultured under 5% CO2 at 37° C. and were treated with indicated concentrations of ES for 3-6 days before harvesting. Whole cell protein was extracted in lysis buffer (BP-115, Boston BioProducts) supplemented with protease inhibitor cocktail (Roche Diagnostics) and the protein concentrations were determined by BCA assay (Thermo Scientific).
Immunoblotting and In-gel Activities. Sodium dodecyl sulfate polyacrylamide gel electrophoresis (SDS-PAGE) and Blue Native PAGE (BN-PAGE) were performed to separate denatured and native protein complexes, respectively. For SDS-PAGE, mitochondrial lysate ([…]) was separated on NuPAGE 4-12% Bis-Tris gels (Life Technologies, Carlsbad, CA). For BN-PAGE, yeast mitochondria were solubilized in buffer containing 1% digitonin (Life Technologies) by incubating for 15 min at 4° C. […]

zebrafish embryos = experiment: Survival of zebrafish embryos treated with ES, copper and combinations; format: in vivo
Source text: NT, No treatment; ES, Elesclomol.

[3] = system: Coa6 knockdown zebrafish embryos
Method: Batches of 50 fertilized embryos injected with either translation blocking or mismatch control morpholinos were treated with or without 100 nM ES at 3 hpf, before making observations at the indicated time points (n % 30 for each time point and treatment).
Zebrafish Experiments. […] Wild type AB strain and Ctr1 heterozygous zebrafish were maintained and crossed using standard methods. Embryos were staged and raised in Egg Water at 28.5° C. For drug treatments, embryos from Ctr1 heterozygous crosses were incubated in 10 nM ES diluted in Egg Water beginning at 3 hours post-fertilization (hpf). For imaging live embryos at 48 hpf, representative embryos of each sample were anesthetized in Tricaine and imaging was performed on an Olympus SZX12 stereomicroscope. […] Morpholino-based experiments were performed.

CN(NC(=O)CC(=O)NN(C)C(=S)c1ccccc1)C(=S)c1ccccc1 [ES, elesclomol]
oxygen consumption rate (coa6Δ cells): restored the oxygen consumption rate of coa6Δ cells to that of wild type cells
rescue of BCS-reduced respiratory growth (BY4741 WT cells): rescued
rescue of respiratory growth (sco1Δ cells): failed to rescue
intracellular copper levels [1]: restored
COX1 levels [2]: dose dependent rescue
lethality (zebrafish embryos; co-supplementation of 100 nM ES with 100 nM of copper): 100%
maximal tolerable dose (zebrafish embryos; zebrafish embryos): 100 nM
pericardial edema ([3]; 100 nM ES): prevented pericardial edema
rescue of morphological phenotype score ([3]; 100 nM ES at 3 hpf, scored at 24, 48, 72, 96 hpf): rescue with 100 nM ES treatment was observed as early as 48 hpf
heart rate of Coa6 knockdown embryos ([3]; 100 nM ES, 72 and 96 hpf): significantly increased the heart rate
